Key:
17G8 = assay: Hydrolysis of reactant ligands by receptor 17G8; type: biochemical, mouse; set-up: key to hydrolysis by 17G8, symbol: --: No hydrolysis observed; details: pH 8.0; for hydrolysis by 17G8, symbol: 19: 2/5 uM, 21: 5/10 uM receptor/ligand; for hydrolysis by 17G8: receptor/ligand uM, time h: 18 2/10, 24, 20 2/10, 0.33, 5 1/5, 0.33, 22 5/10, 3.5, preliminary
Method: (§1) ^1 Preliminary initial hydrolyses shown as the percentage of admixed
(§2) reactant ligand consumed for catalyzed and spontaneous hydrolyses. "--" =
(§3) No hydrolysis observed. "NT" = Not tried. All reactions were carried out
(§4) at pH 8.0 in a 50 mM phosphate buffer unless otherwise noted. Hydrolytic
(§5) percentages were determined by HPLC using a Hitachi model 655A12 liquid
(§6) chromatograph with a C18 Vydac 201TP54 column, except as noted below.
(§7) Mixtures of acetonitrile a nd water containing 0.1 percent trichloroaceti
(§8) acid [28:72-50:50 (v/v)] were used as elutant. Hydrolyses of Compounds 5
(§9) and 20 were assayed using fluorescence data.
(§10) ^2 Concentrations of receptor molecules (Rec.) and reactant ligands
(§11) (Lig.) in micromolar units, presuming a molecular weight of 150,000
(§12) daltons for each receptor molecule.
(§13) ^3 Reactant ligand (Lig.) used as substrate.
(§14) ^4 Time in hours that the reaction was permitted to take place.
(§15) ^5 Spontaneous hydrolytic percentages for the time period indicated.
(§16) ^6 Reaction carried out at pH 7.2 in a 50 mM phosphate buffer.

1209 = assay: Hydrolysis of reactant ligands by receptor 12C9 (column head prints 1209); type: biochemical, mouse; set-up: key to hydrolysis by 1209, symbol: --: No hydrolysis observed; details: pH 8.0; for hydrolysis by 1209, symbol: 19: 2/5 uM, 21: 5/10 uM receptor/ligand; for hydrolysis by 1209: receptor/ligand uM, time h: 17 1/10, 2, 18 2/10, 24, 20 2/10, 0.33, 5 1/5, 0.33, 22 5/10, 3.5, preliminary
Method: as §1, §2, §3, §4, §5, §6, §7, §8, §9, §10, §11, §12, §13, §14, §15, §16

13E10 = assay: Hydrolysis of reactant ligands by receptor 13E10; type: biochemical, mouse; set-up: key to hydrolysis by 13E10, symbol: --: No hydrolysis observed; details: pH 8.0; for hydrolysis by 13E10, symbol: 19: 2/5 uM, 21: 5/10 uM receptor/ligand; for hydrolysis by 13E10: receptor/ligand uM, time h: 17 1/10, 2, 18 2/10, 24, 20 2/10, 0.33, 5 1/5, 0.33, 22 5/10, 3.5, preliminary
Method: as §1, §2, §3, §4, §5, §6, §7, §8, §9, §10, §11, §12, §13, §14, §15, §16

[1] = system: eight monoclonal receptors 21G2, 7E5, 37G2, 13E10, 12C9, 44A2, 17G8 and 22F5; assay: Catalyzed hydrolysis of reactant ligands by the eight QPN1 monoclonal receptors, summary; type: biochemical, mouse; details: pH 8.0
Method: Mice were hyperimmunized with the Compound 13-KLH conjugate over a three to four week time period. Sera were assayed in an ELISA using a Compound 13-BSA conjugate bound to microtiter plate wells as the solid-phase antigen. Cloned hybridomas were also screened using that ELISA assay.
Each of those catalyses could be inhibited by an appropriate analog-ligand. Thus, a relatively high percentage of induced monoclonal receptors was capable of catalyzing an esterolytic reaction. The reason for this relatively high percentage of useful receptors being induced is unknown, but could be due to the presence of phosphonamidate group nitrogen atom, as compared to a phosphonate oxygen atom, or to the quinoline nucleus of the analog-ligand. Those eight catalytic monoclonal receptors and the hybridomas that secrete them are identified by the laboratory designations "QPN1 7E5", "QPN1 12C9", "QPN1 13E10", "QPN1 17G8", "QPN1 21G2", "QPN1 22F5", "QPN1 37G2" and QPN1 44A2. The prefix "QPNI" is sometimes omitted herein when discussing these hybridomas and receptors.
Amide cleavage for Compounds 14 and 15 was assayed by analyzing for the production of free aminoquinaldine or aminonaphthalene by measuring the increase in the azo dye that results from derivatizing the free aminoquinaldine or aminonapthalene with a diazotization reagent.
Catalysis reactions were conducted by preparing a reaction admixture of 100 microliters (ul) total volume containing 5 micromolar (uM) monoclonal antibody, 50-75 uM amide reactant ligand substrate and a buffer described hereinafter. The buffer included in the above admixture varied depending upon the pH utilized as follows: pH 5, 10 […] sodium acetate, 10 mM sodium chloride; pH 7.2, 10 mM sodium phosphate, 0.15 molar (M) sodium chloride; pH 8.0; 50 mM sodium phosphate. The amide-containing substrates screened in this assay were added to the above admixture in 1 ul of a 100-fold concentrated stock solution of dimethyl formamide (DMF). Monoclonal antibody was added to the above admixture from a concentrated stock solution. The resulting admixture was placed into the well of a 96 well flat bottom microtiter plate (Costar, Cambridge, Mass.) and maintained in a moist vapor environment chamber at 23 degrees C. The production of aminoquinaldine or aminonaphthalene was then assayed as described below after 2,3,5, or 6 days.
The aminoquinaldine or aminonapthalene product produced by the catalyzed reaction was measured by first admixing 20 ul of 5M HCl, 80 ul acetone and 10 ul 0.5% (w/v) sodium nitrite to the reaction admixture to form a second admixture and maintaining that second admixture for 3 minutes at room temperature. Thereafter, 10 ul 2.5% (w/v) ammonium sulfamate was added to form a third admixture that was maintained for 2 minutes at room temperature. A still further 10 ul of 0.5% (w/v) N-(1-napthyl)ethylenediamine dihydrochloride was added to form a fourth admixture that was then maintained for 15 minutes at room temperature. Thereafter the resulting azo dye present in the fourth admixture was measured by absorbance spectroscopy at 540 nanometers (nm) for aminoquinaldine using a Model EL 309 Automated Microplate Reader (Bio-Tek Instruments, Winooski, Vt.).

37G2 = assay: Hydrolysis of reactant ligands by receptor 37G2; type: biochemical, mouse; set-up: key to hydrolysis by 37G2, symbol: --: No hydrolysis observed; details: pH 8.0; for hydrolysis by 37G2, symbol: 19: 2/5 uM, 21: 5/10 uM receptor/ligand; for hydrolysis by 37G2: receptor/ligand uM, time h: 17 1/10, 2, 18 2/10, 24, 20 2/10, 0.33, 5 1/5, 0.33, 22 5/10, 3.5, preliminary
Method: as §1, §2, §3, §4, §5, §6, §7, §8, §9, §10, §11, §12, §13, §14, §15, §16

7E5 = assay: Hydrolysis of reactant ligands by receptor 7E5; type: biochemical, mouse; set-up: key to hydrolysis by 7E5, symbol: --: No hydrolysis observed; details: pH 8.0; for hydrolysis by 7E5, symbol: 19: 2/5 uM, 21: 5/10 uM receptor/ligand; for hydrolysis by 7E5: receptor/ligand uM, time h: 17 1/10, 2, 18 2/10, 24, 20 2/10, 0.33, 5 1/5, 0.33, 22 5/10, 3.5, preliminary
Method: as §1, §2, §3, §4, §5, §6, §7, §8, §9, §10, §11, §12, §13, §14, §15, §16

44A2 = assay: Hydrolysis of reactant ligands by receptor 44A2; type: biochemical, mouse; set-up: key to hydrolysis by 44A2, symbol: --: No hydrolysis observed; details: pH 8.0; for hydrolysis by 44A2, symbol: 19: 2/5 uM, 21: 5/10 uM receptor/ligand; for hydrolysis by 44A2: receptor/ligand uM, time h: 17 1/10, 2, 18 2/10, 24, 20 2/10, 0.33, 5 1/5, 0.33, 22 5/10, 3.5, preliminary
Method: as §1, §2, §3, §4, §5, §6, §7, §8, §9, §10, §11, §12, §13, §14, §15, §16

21G2 = assay: Hydrolysis of reactant ligands by receptor 21G2; type: biochemical, mouse; set-up: key to hydrolysis by 21G2, symbol: --: No hydrolysis observed; details: pH 8.0; for hydrolysis by 21G2, symbol: 19: 2/5 uM, 21: 5/10 uM receptor/ligand; for hydrolysis by 21G2: receptor/ligand uM, time h: 17 1/10, 2, 18 2/10, 24, 20 2/10, 0.33, 5 1/5, 0.33, 22 5/10, 3.5, preliminary
Method: as §1, §2, §3, §4, §5, §6, §7, §8, §9, §10, §11, §12, §13, §14, §15, §16

22F5 = assay: Hydrolysis of reactant ligands by receptor 22F5; type: biochemical, mouse; set-up: key to hydrolysis by 22F5, symbol: --: No hydrolysis observed; details: pH 8.0; for hydrolysis by 22F5, symbol: 19: 2/5 uM, 21: 5/10 uM receptor/ligand; for hydrolysis by 22F5: receptor/ligand uM, time h: 17 1/10, 2, 18 2/10, 24, 20 2/10, 0.33, 5 1/5, 0.33, 22 5/10, 3.5, preliminary
Method: as §1, §2, §3, §4, §5, §6, §7, §8, §9, §10, §11, §12, §13, §14, §15, §16

[2] = Spontaneous (uncatalyzed, background) hydrolysis; type: physicochemical; set-up: key to Spon. (spontaneous hydrolysis), symbol: --: No hydrolysis observed; details: for Spon. (spontaneous hydrolysis), symbol: pH 8.0; for Spon. (spontaneous hydrolysis): pH 8.0, 50 mM phosphate, time (h): 17 2, 18 24, 20 0.33, 5 0.33, 22 3.5
Method: The practical range of pH for the assay is limited by the rapid spontaneous rate of hydrolysis of an ester Compound 5 above pH 8.0. Initially, the ester was used at a concentration that was about four-fold greater than that of the protein, and the mixture was incubated at pH 7.2 for 10 minutes. Any change in fluorescence above background was noted.
The lack of spectroscopic distinction between such esters and their hydrolysis products recommended a chromatographic analysis of the process. Referring to FIG. 3, a mixture of Compound 7 (5 uM) and the monoclonal antibody from hybridoma P3 6D4 (0.1 uM) in phosphate buffer (50 mM, pH 8.0) was analyzed over time by high performance liquid chromatography (HPLC). The accelerated hydrolysis of the ester was apparent from the decrease of its peak and the concurrent increase in two new peaks that correspond with the expected products. Under these conditions, the ester is completely consumed in 60-80 minutes during which time the background rate accounts for about 12 to 16 percent hydrolysis. The chromatographic profile is the same as that produced by treatment with hog liver esterase.
^c The rate constants were determined spectrophotometrically (at 245
nm) by measuring initial rates at five concentrations of ester.
as §1, §2, §3, §4, §5, §6, §7, §8, §9, §15
(§17) Reaction kinetics were studied using three reactant ligands as substrates for monoclonal receptors 37G2 and 22F5. Data from initial rates were consistent with Michaelis-Menten reaction mechanism for a usual enzyme-substrate system. Initial rates were followed using at 271 nm using a U.V.-visible spectorphotometer for Compound 17, and a fluorescence spectrometer for Compounds 5 and 20, using an excitation wavelength of 355 nm and an emission wavelength of 455 nm for both compounds.

Monoclonal Receptor 22F5 = assay: Kinetics of hydrolysis by receptor 22F5; type: biochemical, mouse
Description: as §17
Lineweaver-Burke plots for the catalyzed hydrolysis of Compounds 17, 5 and 20 obtained in the presence and absence of Compound 12i as inhibitor were prepared as discussed for FIG. 4. In particular, Compound 17 was present at concentrations of 1-16 uM with inhibitor concentrations of 100 and 300 nanomolar (nM). Compound 5 was present at concentrations of 1-10 uM with inhibitor concentrations of 100 and 200 nM. Compound 20 was present at concentrations of 2-20 uM with inhibitor concentrations of 25 and 100 nM.
*Fluorescence assays using Compounds 20 and 5 were carried out in a
PerkinElmer fluorescence spectrophotometer (moded LS5; Oakbrook, IL) usin
200 nanomolar receptor (based on a molecular weight of 150,000 daltons) i
50 mM phosphate buffer at a pH value of 8.0. The reactant ligand was
dissolved in dioxane and admixed in the amounts discussed above. Two
milliliters of reaction solution were utilized as was a dioxane
concentration of 2 percent by volume. […]

Row | Compound | hydrolysis by 17G8, symbol (17G8) | hydrolysis by 1209, symbol 1209 | hydrolysis by 13E10, symbol (13E10) | receptors (of eight) that catalyzed hydrolysis of the compound [1] | hydrolysis by 37G2, symbol (37G2) | hydrolysis by 7E5, symbol (7E5) | hydrolysis by 44A2, symbol (44A2) | hydrolysis by 21G2, symbol (21G2) | hydrolysis by 22F5, symbol (22F5) | Spon. (spontaneous hydrolysis), symbol [2] | hydrolysis by 17G8 (17G8) | hydrolysis by 1209 1209 | hydrolysis by 13E10 (13E10) | hydrolysis by 37G2 (37G2) | hydrolysis by 7E5 (7E5) | hydrolysis by 44A2 (44A2) | hydrolysis by 21G2 (21G2) | hydrolysis by 22F5 (22F5) | Spon. (spontaneous hydrolysis) [2] | further results
1 | CC(=O)Nc1ccc(CC(=O)Nc2cccc3ccccc23)cc1 [Compound 15] | -- | -- | -- | none of the receptors catalyzed hydrolysis | -- | -- | -- | -- | -- | -- |  |  |  |  |  |  |  |  |  | 
2 | CC(=O)Nc1ccc(CC(=O)Oc2cccc3ccc(C)nc23)cc1 [Compound 16] | -- | -- | -- | failed to react | -- | -- | -- | -- | -- | -- |  |  |  |  |  |  |  |  |  | 
3 | CC(=O)Oc1cccc2ccccc12 [Compound 18] |  |  |  | all of the receptors except 12C9 catalyzed the hydrolysis |  |  |  |  |  |  | 84 percentage of reactant ligand | 56 percentage of reactant ligand | 69 percentage of reactant ligand | 92 percentage of reactant ligand | 76 percentage of reactant ligand | 84 percentage of reactant ligand | 72 percentage of reactant ligand | 100 percentage of reactant ligand | 34 percentage of reactant ligand | 
4 | COC(=O)Cc1ccc(NC(C)=O)cc1 [Compound 19] | -- | -- | -- | none of the receptors | -- | -- | -- | -- | -- | -- |  |  |  |  |  |  |  |  |  | 
5 | CC(=O)Nc1ccc(CC(=O)Oc2ccc3c(C)cc(=O)oc3c2)cc1 [Compound 20] |  |  |  | Only those same five receptors |  |  |  |  |  |  | 20 percentage of reactant ligand | 16 percentage of reactant ligand | 16 percentage of reactant ligand | 39 percentage of reactant ligand | 15 percentage of reactant ligand | 33 percentage of reactant ligand | 36 percentage of reactant ligand | 48 percentage of reactant ligand | 14 percentage of reactant ligand | Km (Monoclonal Receptor 22F5; 50 mM phosphate pH 8.0, 200 nM receptor, 2% dioxane, figure = Km × 10^6): 5 µM; kcat (Monoclonal Receptor 22F5; pH 8.0): 0.023 s⁻¹; Vmax (Monoclonal Receptor 22F5; pH 8.0, 200 nM receptor, figure = Vmax × 10^9): 0.27 µM/min
6 | CC(=O)Nc1ccc(CC(=O)Oc2ccccc2NC(C)=O)cc1 [Compound 21] | -- | -- | -- | lack of hydrolysis | -- | -- | -- | -- | -- | -- |  |  |  |  |  |  |  |  |  | 
